# Experimental data: paper PMC5218480 (PLoS ONE, 2017)
# Tested on: MV-4-11 cells
# Test: Gene expression microarray analysis (Affymetrix PrimeView) and GSEA
# Type: cell-based, human
# Parameters: RFU PODN (11730768_x_at) / Fold change /veh PODN (11730768_x_at) / RFU LINC00158 (11744669_a_at) / Fold change /veh LINC00158 (11744669_a_at) / RFU DUSP10 (11751237_a_at) / Fold change /veh DUSP10 (11751237_a_at) / RFU ID3 (11757404_x_at) / Fold change /veh ID3 (11757404_x_at) / RFU PLEKHG5 (11737974_s_at) / Fold change /veh PLEKHG5 (11737974_s_at) / RFU LRRC4B (11730491_at) / Fold change /veh LRRC4B (11730491_at) / RFU GIMAP4 (11747438_a_at) / Fold change /veh GIMAP4 (11747438_a_at) / RFU KRT8 (11758183_x_at) / Fold change /veh KRT8 (11758183_x_at) / RFU CNN1 (11734310_a_at) / Fold change /veh CNN1 (11734310_a_at) / RFU VPS37D (11726825_at) / Fold change /veh VPS37D (11726825_at) / RFU C10orf10 (11716522_x_at) / Fold change /veh C10orf10 (11716522_x_at) / RFU KIR2DL2 /// KIR2DL4 /// KIR2DL5A /// KIR2DL5B /// KIR2DS1 /// KIR2DS2 /// KIR2DS3 /// KIR2DS4 /// KIR3DL3 /// KIR3DL3 /// KIR3DS1 (11738374_at) / Fold change /veh KIR2DL2 /// KIR2DL4 /// KIR2DL5A /// KIR2DL5B /// KIR2DS1 /// KIR2DS2 /// KIR2DS3 /// KIR2DS4 /// KIR3DL3 /// KIR3DL3 /// KIR3DS1 (11738374_at) / RFU C1QL1 (11718748_at) / Fold change /veh C1QL1 (11718748_at) / RFU TMPRSS4 (11747572_a_at) / Fold change /veh TMPRSS4 (11747572_a_at) / RFU HAMP (11756126_x_at) / Fold change /veh HAMP (11756126_x_at) / RFU RNFT2 (11725882_a_at) / Fold change /veh RNFT2 (11725882_a_at) / RFU NR4A2 (11747474_a_at) / Fold change /veh NR4A2 (11747474_a_at) / RFU ABCC12 (11746883_a_at) / Fold change /veh ABCC12 (11746883_a_at) / RFU TMEM136 (11760407_x_at) / Fold change /veh TMEM136 (11760407_x_at) / RFU CLDN22 /// WWC2 (11732394_at) / Fold change /veh CLDN22 /// WWC2 (11732394_at) / RFU HLA-DPB1 (11760878_x_at) / Fold change /veh HLA-DPB1 (11760878_x_at) / RFU SPINT1 (11716480_a_at) / Fold change /veh SPINT1 (11716480_a_at) / RFU GAP43 (11754022_s_at) / Fold change /veh GAP43 (11754022_s_at) / RFU A4GNT (11735810_at) / Fold change /veh A4GNT (11735810_at) / RFU PRB3 (11715151_x_at) / Fold change /veh PRB3 (11715151_x_at) / RFU TUBB4B (11761932_at) / Fold change /veh TUBB4B (11761932_at) / RFU CAPN14 (11732068_a_at) / Fold change /veh CAPN14 (11732068_a_at) / RFU TMCC2 (11721928_a_at) / Fold change /veh TMCC2 (11721928_a_at) / RFU IRGQ (11745062_a_at) / Fold change /veh IRGQ (11745062_a_at) / RFU FAM174B (11720279_a_at) / Fold change /veh FAM174B (11720279_a_at) / RFU TMPRSS4 (11748680_a_at) / Fold change /veh TMPRSS4 (11748680_a_at) / RFU FAM212B (11763350_a_at) / Fold change /veh FAM212B (11763350_a_at) / RFU PLEKHG5 (11743358_a_at) / Fold change /veh PLEKHG5 (11743358_a_at) / RFU ZSCAN30 (11745921_a_at) / Fold change /veh ZSCAN30 (11745921_a_at) / RFU CMKLR1 (11741424_a_at) / Fold change /veh CMKLR1 (11741424_a_at) / RFU LOC101060620 /// MAPK8IP1 (11723275_at) / Fold change /veh LOC101060620 /// MAPK8IP1 (11723275_at) / RFU SPTSSB (11747773_x_at) / Fold change /veh SPTSSB (11747773_x_at) / RFU PRSS12 (11739890_at) / Fold change /veh PRSS12 (11739890_at) / RFU BIN1 (11741810_x_at) / Fold change /veh BIN1 (11741810_x_at) / RFU WNT11 (11732464_a_at) / Fold change /veh WNT11 (11732464_a_at) / RFU C10orf10 (11716521_a_at) / Fold change /veh C10orf10 (11716521_a_at) / RFU C5orf56 (11738089_at) / Fold change /veh C5orf56 (11738089_at) / RFU CYB561 (11721691_x_at) / Fold change /veh CYB561 (11721691_x_at) / RFU ANKRD19P (11752326_a_at) / Fold change /veh ANKRD19P (11752326_a_at) / RFU OR2T12 /// OR2T33 /// OR2T8 (11738714_s_at) / Fold change /veh OR2T12 /// OR2T33 /// OR2T8 (11738714_s_at) / RFU VCAN (11748164_a_at) / Fold change /veh VCAN (11748164_a_at) / RFU JSRP1 (11732532_at) / Fold change /veh JSRP1 (11732532_at) / RFU KRTAP10-11 (11738290_x_at) / Fold change /veh KRTAP10-11 (11738290_x_at) / RFU MYO3A (11730013_a_at) / Fold change /veh MYO3A (11730013_a_at) / RFU EBF3 (11725865_a_at) / Fold change /veh EBF3 (11725865_a_at) / RFU CAMK2N1 (11719241_x_at) / Fold change /veh CAMK2N1 (11719241_x_at) / RFU C5orf56 (11738088_a_at) / Fold change /veh C5orf56 (11738088_a_at) / RFU OLFML3 (11715873_a_at) / Fold change /veh OLFML3 (11715873_a_at) / RFU LOC100653217 /// NTM (11731650_a_at) / Fold change /veh LOC100653217 /// NTM (11731650_a_at) / RFU MAPK11 (11762145_a_at) / Fold change /veh MAPK11 (11762145_a_at) / RFU FIZ1 (11724087_x_at) / Fold change /veh FIZ1 (11724087_x_at) / RFU OASL (11726364_x_at) / Fold change /veh OASL (11726364_x_at) / RFU SOX15 (11748057_x_at) / Fold change /veh SOX15 (11748057_x_at) / RFU CD79A (11719716_a_at) / Fold change /veh CD79A (11719716_a_at) / RFU HIST1H1D (11736915_at) / Fold change /veh HIST1H1D (11736915_at) / RFU CASKIN2 (11723855_a_at) / Fold change /veh CASKIN2 (11723855_a_at) / RFU LOC730098 (11760151_x_at) / Fold change /veh LOC730098 (11760151_x_at) / RFU OR4N2 (11742367_at) / Fold change /veh OR4N2 (11742367_at) / RFU PRRT2 (11749266_a_at) / Fold change /veh PRRT2 (11749266_a_at) / RFU SNX32 (11753110_a_at) / Fold change /veh SNX32 (11753110_a_at) / RFU CDHR5 (11726645_a_at) / Fold change /veh CDHR5 (11726645_a_at) / RFU RCAN1 (11760418_a_at) / Fold change /veh RCAN1 (11760418_a_at) / RFU FAM167A (11723789_a_at) / Fold change /veh FAM167A (11723789_a_at) / RFU FAM26E (11764081_at) / Fold change /veh FAM26E (11764081_at) / RFU ISYNA1 (11749810_s_at) / Fold change /veh ISYNA1 (11749810_s_at) / RFU ACY1 (11761880_at) / Fold change /veh ACY1 (11761880_at) / RFU 11764098_at / Fold change /veh 11764098_at / RFU SAMD14 (11745864_x_at) / Fold change /veh SAMD14 (11745864_x_at) / RFU NPB (11741838_a_at) / Fold change /veh NPB (11741838_a_at) / RFU TMPRSS6 (11731388_a_at) / Fold change /veh TMPRSS6 (11731388_a_at) / RFU KRTAP10-2 (11738614_at) / Fold change /veh KRTAP10-2 (11738614_at) / RFU ARHGAP8 /// PRR5-ARHGAP8 (11727945_x_at) / Fold change /veh ARHGAP8 /// PRR5-ARHGAP8 (11727945_x_at) / RFU KRTAP5-7 /// NADSYN1 (11734609_at) / Fold change /veh KRTAP5-7 /// NADSYN1 (11734609_at) / RFU RASL12 (11751679_a_at) / Fold change /veh RASL12 (11751679_a_at) / RFU CDKN2B (11736163_a_at) / Fold change /veh CDKN2B (11736163_a_at) / RFU PRF1 (11729649_at) / Fold change /veh PRF1 (11729649_at) / RFU, ZNF638 /// ZNF638-IT1 / Fold change vs veh, ZNF638 /// ZNF638-IT1 / RFU, PANK3 / Fold change vs veh, PANK3 / RFU, SH3YL1 / Fold change vs veh, SH3YL1 / RFU, ZEB2 / Fold change vs veh, ZEB2 / RFU, NRIP1 / Fold change vs veh, NRIP1 / RFU, PTTG1IP / Fold change vs veh, PTTG1IP / RFU, CAPN2 / Fold change vs veh, CAPN2 / RFU, MED14 / Fold change vs veh, MED14 / RFU, SNORA58 / Fold change vs veh, SNORA58 / RFU, C1orf63 / Fold change vs veh, C1orf63 / RFU, LRRFIP1 / Fold change vs veh, LRRFIP1 / RFU, NDUFAF7 / Fold change vs veh, NDUFAF7 / RFU, SLC12A2 / Fold change vs veh, SLC12A2 / RFU, IBTK / Fold change vs veh, IBTK / RFU, ESF1 / Fold change vs veh, ESF1 / Fold change vs veh, TMEM50B / RFU, TAOK1 / Fold change vs veh, TAOK1 / RFU, ACBD3 / Fold change vs veh, ACBD3 / RFU, TMA16 / Fold change vs veh, TMA16 / RFU, RWDD3 / Fold change vs veh, RWDD3 / RFU, BCAT1 / Fold change vs veh, BCAT1 / RFU, EDEM3 / Fold change vs veh, EDEM3 / RFU, TMEM33 / Fold change vs veh, TMEM33 / RFU, WDR75 / Fold change vs veh, WDR75 / RFU, AHCTF1 / Fold change vs veh, AHCTF1 / RFU, TFRC / Fold change vs veh, TFRC / RFU, ZDHHC17 / Fold change vs veh, ZDHHC17 / RFU, NOM1 / Fold change vs veh, NOM1 / RFU, ARL8B / Fold change vs veh, ARL8B / RFU, ZBTB11 / Fold change vs veh, ZBTB11 / RFU, TAMM41 / Fold change vs veh, TAMM41 / RFU, KIAA1704 /// LOC100996395 / Fold change vs veh, KIAA1704 /// LOC100996395 / RFU, ING1 / Fold change vs veh, ING1 / RFU, TRMT61B / Fold change vs veh, TRMT61B / RFU, FUBP3 / Fold change vs veh, FUBP3 / RFU, TP53 / Fold change vs veh, TP53 / RFU, TNKS2 / Fold change vs veh, TNKS2 / RFU, ZFP14 / Fold change vs veh, ZFP14 / RFU, ACTR2 / Fold change vs veh, ACTR2 / RFU, PPP3R1 / Fold change vs veh, PPP3R1 / RFU, PIK3R1 / Fold change vs veh, PIK3R1 / RFU, HNRNPA1 / Fold change vs veh, HNRNPA1 / RFU, RNF170 / Fold change vs veh, RNF170 / RFU, ZNF28 / Fold change vs veh, ZNF28 / RFU, RNGTT / Fold change vs veh, RNGTT / RFU, OGT / Fold change vs veh, OGT / RFU, BRD1 / Fold change vs veh, BRD1 / RFU, MARS / Fold change vs veh, MARS / RFU, ZNF655 / Fold change vs veh, ZNF655 / RFU, FAHD1 / Fold change vs veh, FAHD1 / RFU, BDP1 / Fold change vs veh, BDP1 / RFU, LRRCC1 / Fold change vs veh, LRRCC1 / RFU, ARID1A / Fold change vs veh, ARID1A / RFU, ZNF146 / Fold change vs veh, ZNF146 / RFU, ZNF330 / Fold change vs veh, ZNF330 / RFU, GPN3 / Fold change vs veh, GPN3 / RFU, C9orf123 / Fold change vs veh, C9orf123 / RFU, N4BP2L2 / Fold change vs veh, N4BP2L2 / RFU, ARFIP1 / Fold change vs veh, ARFIP1 / RFU, FAM179B / Fold change vs veh, FAM179B / RFU, BCL10 / Fold change vs veh, BCL10 / RFU, UHRF1BP1L / Fold change vs veh, UHRF1BP1L / RFU, BET1 / Fold change vs veh, BET1 / RFU, CNOT2 / Fold change vs veh, CNOT2 / RFU, ZNF268 / Fold change vs veh, ZNF268 / Fold change vs veh, ZNF507 / RFU, DGCR2 / Fold change vs veh, DGCR2 / RFU, WDSUB1 / Fold change vs veh, WDSUB1 / Fold change vs veh, HSP90B1 /// MIR3652 / RFU, ADSS / Fold change vs veh, ADSS / RFU, GK / Fold change vs veh, GK / RFU, ZNF148 / Fold change vs veh, ZNF148 / RFU, TAF9 / Fold change vs veh, TAF9 / RFU, SLC1A5 / Fold change vs veh, SLC1A5 / RFU, SLMO2 / Fold change vs veh, SLMO2 / RFU, ABCC4 / Fold change vs veh, ABCC4 / RFU, LOC101060439 /// RAP1B / Fold change vs veh, LOC101060439 /// RAP1B / RFU, RFX7 / Fold change vs veh, RFX7 / RFU, GTPBP10 / Fold change vs veh, GTPBP10 / RFU, CNEP1R1 / Fold change vs veh, CNEP1R1 / RFU, BIVM-ERCC5 /// ERCC5 / Fold change vs veh, BIVM-ERCC5 /// ERCC5 / RFU, ILF3 / Fold change vs veh, ILF3 / RFU 11762660_at / Fold change /veh 11762660_at / RFU VCAN (11757783_s_at) / Fold change /veh VCAN (11757783_s_at) / RFU DDX43 (11728927_at) / Fold change /veh DDX43 (11728927_at) / RFU KRT8 (11758188_x_at) / Fold change /veh KRT8 (11758188_x_at) / RFU NKD1 (11759106_at) / Fold change /veh NKD1 (11759106_at) / RFU SRD5A1 (11742802_a_at) / Fold change /veh SRD5A1 (11742802_a_at) / RFU TPSAB1 /// TPSB2 (11721975_s_at) / Fold change /veh TPSAB1 /// TPSB2 (11721975_s_at) / RFU GSTM3 (11746129_a_at) / Fold change /veh GSTM3 (11746129_a_at) / RFU IL23R (11737362_x_at) / Fold change /veh IL23R (11737362_x_at) / RFU TMEM51 (11727254_a_at) / Fold change /veh TMEM51 (11727254_a_at) / RFU PIWIL2 (11732686_x_at) / Fold change /veh PIWIL2 (11732686_x_at) / RFU ORM1 (11744905_x_at) / Fold change /veh ORM1 (11744905_x_at) / RFU CCDC152 (11743942_at) / Fold change /veh CCDC152 (11743942_at) / RFU ECM1 (11717891_a_at) / Fold change /veh ECM1 (11717891_a_at) / RFU IL23R (11748794_a_at) / Fold change /veh IL23R (11748794_a_at) / RFU TNFAIP8L3 (11732012_x_at) / Fold change /veh TNFAIP8L3 (11732012_x_at) / RFU MBOAT4 (11741988_at) / Fold change /veh MBOAT4 (11741988_at) / RFU 11764193_at / Fold change /veh 11764193_at / RFU TMEM53 (11763286_at) / Fold change /veh TMEM53 (11763286_at) / RFU MAGEB2 (11727129_at) / Fold change /veh MAGEB2 (11727129_at) / RFU TMEM200A (11744735_a_at) / Fold change /veh TMEM200A (11744735_a_at) / RFU CCDC152 (11751479_a_at) / Fold change /veh CCDC152 (11751479_a_at) / RFU FAM211A (11726209_a_at) / Fold change /veh FAM211A (11726209_a_at) / RFU RGS16 (11746705_a_at) / Fold change /veh RGS16 (11746705_a_at) / RFU VCAN (11755009_s_at) / Fold change /veh VCAN (11755009_s_at) / RFU RHOB (11743442_s_at) / Fold change /veh RHOB (11743442_s_at) / RFU RGS16 (11720943_a_at) / Fold change /veh RGS16 (11720943_a_at) / RFU RGS16 (11720944_at) / Fold change /veh RGS16 (11720944_at) / RFU, VPS4B / Fold change vs veh, VPS4B / RFU, CREB1 / Fold change vs veh, CREB1 / RFU, DNAJC13 / Fold change vs veh, DNAJC13 / RFU, GNAQ / Fold change vs veh, GNAQ / RFU, CDK5R1 / Fold change vs veh, CDK5R1 / RFU, ZRANB3 / Fold change vs veh, ZRANB3 / RFU, CUL4A / Fold change vs veh, CUL4A / RFU, CCNY / Fold change vs veh, CCNY / RFU, UFL1 / Fold change vs veh, UFL1 / RFU, COG3 / Fold change vs veh, COG3 / RFU, DIAPH2 / Fold change vs veh, DIAPH2 / RFU, SKA2 / Fold change vs veh, SKA2 / RFU, AFF3 / Fold change vs veh, AFF3 / RFU, LMF1 / Fold change vs veh, LMF1 / RFU, IPO11 / Fold change vs veh, IPO11 / RFU, DFFB / Fold change vs veh, DFFB / RFU, FOXP1 / Fold change vs veh, FOXP1 / RFU, CARD8 / Fold change vs veh, CARD8 / RFU, STRN3 / Fold change vs veh, STRN3 / RFU, ADK / Fold change vs veh, ADK / RFU, RASSF2 / Fold change vs veh, RASSF2 / RFU, WIPF1 / Fold change vs veh, WIPF1 / RFU, LARP1B / Fold change vs veh, LARP1B / RFU, RASA1 / Fold change vs veh, RASA1 / RFU, RB1 / Fold change vs veh, RB1 / RFU, PPFIA1 / Fold change vs veh, PPFIA1 / RFU, MAT2A / Fold change vs veh, MAT2A / RFU, CCT5 / Fold change vs veh, CCT5 / RFU, WDR92 / Fold change vs veh, WDR92 / RFU, CUX1 / Fold change vs veh, CUX1 / RFU, TTC7A / Fold change vs veh, TTC7A / RFU, TMEM135 / Fold change vs veh, TMEM135 / RFU, DEPTOR / Fold change vs veh, DEPTOR / RFU, CPM / Fold change vs veh, CPM / RFU, DNAJB6 / Fold change vs veh, DNAJB6 / RFU, CACNA2D3 / Fold change vs veh, CACNA2D3 / RFU, DTX4 / Fold change vs veh, DTX4 / RFU, TFCP2 / Fold change vs veh, TFCP2 / RFU, GMCL1 /// GMCL1P1 / Fold change vs veh, GMCL1 /// GMCL1P1 / RFU, AEBP2 / Fold change vs veh, AEBP2 / RFU, SNHG1 /// SNORD22 /// SNORD25 /// SNORD26 /// SNORD27 /// SNORD28 /// SNORD29 /// SNORD31 / Fold change vs veh, SNHG1 /// SNORD22 /// SNORD25 /// SNORD26 /// SNORD27 /// SNORD28 /// SNORD29 /// SNORD31 / Fold change (Aza/veh), C12orf56 (ProbeSet 11735607_a_at) / Fold change (ACY-1035/veh), C12orf56 (ProbeSet 11735607_a_at) / Fold change (Aza/veh), FGFR1OP (ProbeSet 11751329_s_at) / Fold change (ACY-1035/veh), FGFR1OP (ProbeSet 11751329_s_at) / Fold change (Aza/veh), VPS36 (ProbeSet 11739960_a_at) / Fold change (ACY-1035/veh), VPS36 (ProbeSet 11739960_a_at) / RFU SYPL1 (11715823_x_at) / Fold change /veh SYPL1 (11715823_x_at) / RFU IGFBP7 (11715501_s_at) / Fold change /veh IGFBP7 (11715501_s_at) / RFU REEP3 (11722064_at) / Fold change /veh REEP3 (11722064_at) / RFU IGLL1 (11728026_x_at) / Fold change /veh IGLL1 (11728026_x_at): dose or concentration left out as unconfirmed
# Conditions: MV-4-11 cells, 48 hours
smiles,measurement,value
Nc1ccc(-c2cccs2)cc1NC(=O)c1ccc2c(c1)cc(C1CC1)n2CCN1CCOCC1 [ACY-1035],Fold change /veh GAP43 (11754022_s_at),0.88
